The results in this text go back to BindingDB's records for doi:10.1016/s0960-894x(99)00197-3 (The R. W. Johnson Pharmaceutical Research Institute, 1999).

The nature of this assay: Activation of human platelet aggregation (gel-filtered platelets) induced by alpha thrombin.
With `N=C(N)NCCC[C@H](NC(=O)[C@H](CC1CCCCC1)NC(=O)c1nnc(N)[nH]1)C(=O)N[C@H](C(N)=O)c1ccccc1` [5-Amino-1H-[1,2,4]triazole-3-carboxylic acid ((S)-1-{(S)-1-[((S)-carbamoyl-phenyl-methyl)-carbamoyl]-4-guanidino-butylcarbamoyl}-2-cyclohexyl-ethyl)-amide], the EC50 – broadly, the concentration needed to bring the measured effect to its halfway point – was 3.1 µM. In turn, `N=C(N)NCCC[C@H](NC(=O)[C@H](CC1CCCCC1)NC(=O)c1nnc(N)[nH]1)C(=O)N[C@@H](Cc1ccccc1)C(N)=O` [5-Amino-1H-[1,2,4]triazole-3-carboxylic acid {(S)-1-[(S)-1-((S)-1-carbamoyl-2-phenyl-ethylcarbamoyl)-4-guanidino-butylcarbamoyl]-2-cyclohexyl-ethyl}-amide] registered a concentration for a half-maximal effect (EC50) of 0.76 µM. With `N=C(N)NCCC[C@H](NC(=O)[C@H](Cc1ccccc1)NC(=O)c1nnc(N)[nH]1)C(=O)N[C@@H](Cc1ccccc1)C(N)=O` [5-Amino-1H-[1,2,4]triazole-3-carboxylic acid {(S)-1-[(S)-1-((S)-1-carbamoyl-2-phenyl-ethylcarbamoyl)-4-guanidino-butylcarbamoyl]-2-phenyl-ethyl}-amide] the figure was 1 µM; with `NCCCC[C@H](NC(=O)[C@H](CC1CCCCC1)NC(=O)c1nnc(N)[nH]1)C(=O)N[C@@H](Cc1ccccc1)C(N)=O` [5-Amino-1H-[1,2,4]triazole-3-carboxylic acid {(S)-1-[(S)-5-amino-1-((S)-1-carbamoyl-2-phenyl-ethylcarbamoyl)-pentylcarbamoyl]-2-cyclohexyl-ethyl}-amide], 3.9 µM. For `N=C(N)NCCC[C@H](NC(=O)[C@H](CC1CCCCC1)NC(=O)c1nnc(NC(=O)C=Cc2cccc(Cl)c2)[nH]1)C(=O)N[C@@H](Cc1ccccc1)C(N)=O` [5-[(E)-3-(3-Chloro-phenyl)-acryloylamino]-1H-[1,2,4]triazole-3-carboxylic acid {(S)-1-[(S)-1-((S)-1-carbamoyl-2-phenyl-ethylcarbamoyl)-4-guanidino-butylcarbamoyl]-2-cyclohexyl-ethyl}-amide] the value was 2.4 µM; for `N=C(N)NCCC[C@H](NC(=O)[C@H](CC1CCCCC1)NC(=O)c1nnc(NC(=O)C=Cc2ccc(F)cc2)[nH]1)C(=O)N[C@@H](Cc1ccccc1)C(N)=O` [5-[(E)-3-(4-Fluoro-phenyl)-acryloylamino]-1H-[1,2,4]triazole-3-carboxylic acid {(S)-1-[(S)-1-((S)-1-carbamoyl-2-phenyl-ethylcarbamoyl)-4-guanidino-butylcarbamoyl]-2-cyclohexyl-ethyl}-amide], 7.9 µM.

For the compound `N=C(N)NCCC[C@H](NC(=O)[C@H](CC1CCCCC1)NC(=O)c1nnc(NC(=O)C=Cc2ccccc2)[nH]1)C(=O)N[C@@H](Cc1ccccc1)C(N)=O` [5-[(E)-(3-Phenyl-acryloyl)amino]-1H-[1,2,4]triazole-3-carboxylic acid {(S)-1-[(S)-1-((S)-1-carbamoyl-2-phenyl-ethylcarbamoyl)-4-guanidino-butylcarbamoyl]-2-cyclohexyl-ethyl}-amide], a half-maximal effect (EC50) was put at 21 µM.
